Substitutions are numbered along the chain they refer to.

For the first assay, the target named is T1, androgen receptor (AR) (Homo sapiens, UniProt P10275).
T1 construct: endogenous in cells; host or cells: VCAP
T1 sequence (P10275 1-920): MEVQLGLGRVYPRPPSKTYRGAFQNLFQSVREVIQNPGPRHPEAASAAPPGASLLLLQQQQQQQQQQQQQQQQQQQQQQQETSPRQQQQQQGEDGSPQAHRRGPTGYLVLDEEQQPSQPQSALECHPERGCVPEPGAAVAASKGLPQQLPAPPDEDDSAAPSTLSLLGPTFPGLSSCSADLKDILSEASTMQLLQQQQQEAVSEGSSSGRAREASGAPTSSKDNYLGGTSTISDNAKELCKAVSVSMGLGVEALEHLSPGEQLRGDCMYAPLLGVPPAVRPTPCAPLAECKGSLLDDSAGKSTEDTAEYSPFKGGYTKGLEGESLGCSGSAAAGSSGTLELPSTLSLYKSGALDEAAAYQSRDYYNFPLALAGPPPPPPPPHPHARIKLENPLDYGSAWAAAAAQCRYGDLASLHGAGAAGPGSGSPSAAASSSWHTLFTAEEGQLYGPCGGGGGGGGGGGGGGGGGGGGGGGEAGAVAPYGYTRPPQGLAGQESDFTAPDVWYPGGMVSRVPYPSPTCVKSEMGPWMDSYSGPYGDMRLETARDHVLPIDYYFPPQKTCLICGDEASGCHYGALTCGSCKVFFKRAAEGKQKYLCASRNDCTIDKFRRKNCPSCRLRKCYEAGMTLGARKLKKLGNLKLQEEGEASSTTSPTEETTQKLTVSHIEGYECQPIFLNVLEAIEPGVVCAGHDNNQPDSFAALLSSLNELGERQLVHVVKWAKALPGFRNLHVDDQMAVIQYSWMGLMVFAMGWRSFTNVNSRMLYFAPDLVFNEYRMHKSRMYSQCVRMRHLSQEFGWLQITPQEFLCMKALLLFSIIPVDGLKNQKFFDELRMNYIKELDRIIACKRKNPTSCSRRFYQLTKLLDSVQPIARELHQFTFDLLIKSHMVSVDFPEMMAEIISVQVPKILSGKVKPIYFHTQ
The assay can be described thus: AR degradation in VCAP cells (Western blot). In kind it is cell-based. Particulars: 24 hours after administration. As to the method: (§1) LNCAP, VCAP and 22Rv1 cells were plated in 24-well plates at 1.5×10E5 cells/well in the RPMI growth medium containing 10% FBS and 1% Penicillin Streptomycin, and then incubated at 37° C. overnight. The following day, the test compound was administered to the cells by using 1000× compound stock solution prepared in DMSO at various concentrations. After administration of the compound, the cells were then incubated at 37° C. for 24 hours. Upon completion, the cells were washed with PBS and protein was collected in Laemmli sample buffer (1×; VWR International). Proteins in cell lysate were separated by SDS-PAGE and transferred to Odyssey nitrocellulose membranes (Licor) with iblot® dry blotting transfer system (ThermoFisher). Nonspecific binding was blocked by incubating membranes with Intercept Blocking Buffer (Licor) for 1 hour at room temperature with gentle shaking. The membranes were then incubated overnight at 4° C. with Primary antibodies rabbit anti-AR (1:1,000, Cell Signaling, 5153) and mouse anti-GAPDH (1:5,000, Santa Cruz Biotechnology, sc-47724) diluted in Intercept Blocking Buffer containing 0.1% Tween 20. After washing 3 times with TBS-T, the membranes were incubated with IRDye® […] goat anti-mouse IgG (1:20,000, Licor) or IRDye® […] goat anti-rabbit IgG (1:20,000, Licor) for 1 hour. After TBS-T washes, membranes were rinsed in TBS and scanned on Odyssey® CLx Imaging System (Licor). The bands were quantified using Image Studio™ Software (Licor).
(§2) Tables 5 and 6 summarize the androgen receptor (AR) degradative activity of exemplary compounds in LNCAP, VCAP and 22Rv1 cell lines 24 hours after administration. DC50: compound concentration needed for 50% target protein degradation.
Background: Immunoblotting shows a protein as a band on a membrane.
In general, DC50 refers to the concentration giving 50% degradation. A lower DC50 goes with a more potent degrader. Regarding `C[C@@H]1CN(c2ccc(C#N)c(C(F)(F)F)c2)[C@@H](C)CN1C(=O)Nc1ccc(N2CCC(CN3CCN(c4ccc5c(c4)C(=O)N(C4CCC(=O)NC4=O)C5=O)CC3)CC2)nc1` (stereo partly drawn) [Compound 1-30, (2R,5S)-4-(4-cyano-3-(trifluoromethyl)phenyl)-N-(6-(4-((4-(2-(2,6-dioxopiperidin-3-yl)-1,3-dioxoisoindolin-5-yl)piperazin-1-yl)methyl)piperidin-1-yl)pyridin-3-yl)-2,5-dimethylpiperazine-1-carboxamide], the DC50 was no more than 0.01 µM.

The target in another assay is T2, androgen receptor (AR) (Homo sapiens, UniProt P10275, T878A).
T2 construct: endogenous in cells; host or cells: LNCAP
T2 sequence (P10275 1-920 T878A): T1 sequence (P10275 1-920) with T878A
The assay can be described thus: AR degradation in LNCAP cells (Western blot). In kind it is cell-based. Particulars: 24 hours after administration. As to the method: as §1, §2
As to `C[C@@H]1CN(c2ccc(C#N)c(C(F)(F)F)c2)[C@@H](C)CN1C(=O)Nc1ccc(N2CCC(CN3CCN(c4ccc5c(c4)C(=O)N(C4CCC(=O)NC4=O)C5=O)CC3)CC2)nc1` (stereo partly drawn) [Compound 1-30, (2R,5S)-4-(4-cyano-3-(trifluoromethyl)phenyl)-N-(6-(4-((4-(2-(2,6-dioxopiperidin-3-yl)-1,3-dioxoisoindolin-5-yl)piperazin-1-yl)methyl)piperidin-1-yl)pyridin-3-yl)-2,5-dimethylpiperazine-1-carboxamide], the DC50 was no more than 0.01 µM.

Turning to `C[C@@H]1CN(c2ccc(C#N)c3ncccc23)[C@@H](C)CN1C(=O)Nc1cc(F)c(N2CCC(CN3CCN(c4ccc5c(c4)CN([C@H]4CCC(=O)NC4=O)C5=O)CC3)CC2)cc1F` [Compound 2-18, (2R,5S)-4-(8-cyanoquinolin-5-yl)-N-(4-(4-((4-(2-((S)-2,6-dioxopiperidin-3-yl)-1-oxoisoindolin-5-yl)piperazin-1-yl)methyl)piperidin-1-yl)-2,5-difluorophenyl)-2,5-dimethylpiperazine-1-carboxamide], the 50% degradation concentration (DC50) is greater than 0.1 µM.

`C[C@@H]1CN(c2ccc(C#N)c3ncccc23)[C@@H](C)CN1C(=O)Nc1ccc(N2CCC(CN3CCN(c4ccc5c(c4)CN([C@H]4CCC(=O)NC4=O)C5=O)CC3)CC2)nc1` [Compound 2-11, (2R,5S)-4-(8-cyanoquinolin-5-yl)-N-(6-(4-((4-(2-((S)-2,6-dioxopiperidin-3-yl)-1-oxoisoindolin-5-yl)piperazin-1-yl)methyl)piperidin-1-yl)pyridin-3-yl)-2,5-dimethylpiperazine-1-carboxamide] showed a DC50 greater than 0.1 µM.

As for `COc1cc(N2C[C@@H](C)N(C(=O)Nc3ccc(N4CCC(CN5CCN(c6ccc7c(c6)CN([C@H]6CCC(=O)NC6=O)C7=O)CC5)CC4)nc3)C[C@@H]2C)ccc1C#N` [Compound 1-33, (2R,5S)-4-(4-cyano-3-methoxyphenyl)-N-(6-(4-((4-(2-((S)-2,6-dioxopiperidin-3-yl)-1-oxoisoindolin-5-yl)piperazin-1-yl)methyl)piperidin-1-yl)pyridin-3-yl)-2,5-dimethylpiperazine-1-carboxamide], the DC50 is no more than 0.01 µM.

Turning to `C[C@@H]1CN(c2ccc(C#N)c(Cl)c2)[C@@H](C)CN1C(=O)Nc1ccc(N2CCC(CN3CCN(c4ccc5c(c4)C(=O)N(C4CCC(=O)NC4=O)C5=O)CC3)CC2)c(F)c1` (stereo partly drawn) [Compound 1-47, (2R,5S)-4-(3-chloro-4-cyanophenyl)-N-(4-(4-((4-(2-(2,6-dioxopiperidin-3-yl)-1,3-dioxoisoindolin-5-yl)piperazin-1-yl)methyl)piperidin-1-yl)-3-fluorophenyl)-2,5-dimethylpiperazine-1-carboxamide], the DC50 was no more than 0.01 µM.

For the compound `C[C@@H]1CN(c2ccc(C#N)c(Cl)c2)[C@@H](C)CN1C(=O)Nc1ccc(N2CCC(CN3CCN(c4cc5c(cc4F)C(=O)N([C@H]4CCC(=O)NC4=O)C5)CC3)CC2)c(F)c1` [Compound 1-56, (2R,5S)-4-(3-chloro-4-cyanophenyl)-N-(4-(4-((4-(2-((S)-2,6-dioxopiperidin-3-yl)-6-fluoro-1-oxoisoindolin-5-yl)piperazin-1-yl)methyl)piperidin-1-yl)-3-fluorophenyl)-2,5-dimethylpiperazine-1-carboxamide], the DC50 was no more than 0.01 µM.

On to `C[C@H]1CN(C(=O)Nc2ccc(N3CCC(CN4CCN(c5ccc6c(c5)C(=O)N(C5CCC(=O)NC5=O)C6=O)CC4)CC3)nc2)CCN1c1ccc(C#N)c2ncccc12` (stereo partly drawn) [Compound 2-15, (3S)-4-(8-cyanoquinolin-5-yl)-N-(6-(4-((4-(2-(2,6-dioxopiperidin-3-yl)-1,3-dioxoisoindolin-5-yl)piperazin-1-yl)methyl)piperidin-1-yl)pyridin-3-yl)-3-methylpiperazine-1-carboxamide], for which the DC50 was greater than 0.1 µM.

With `C[C@@H]1CN(c2ccc(C#N)c3ncccc23)[C@@H](C)CN1C(=O)Nc1cnc(N2CCC(CN3CCN(c4ccc5c(c4)C(=O)N(C4CCC(=O)NC4=O)C5=O)CC3)CC2)nc1` (stereo partly drawn) [Compound 2-8, (2R,5S)-4-(8-cyanoquinolin-5-yl)-N-(2-(4-((4-(2-(2,6-dioxopiperidin-3-yl)-1,3-dioxoisoindolin-5-yl)piperazin-1-yl)methyl)piperidin-1-yl)pyrimidin-5-yl)-2,5-dimethylpiperazine-1-carboxamide], the DC50 was greater than 0.1 µM.

Compound `C[C@@H]1CN(c2ccc(C#N)c(Cl)c2)[C@@H](C)CN1C(=O)Nc1cnc(N2CCC(CN3CCN(c4ccc5c(c4)CN([C@H]4CCC(=O)NC4=O)C5=O)CC3)CC2)nc1` [Compound 1-51, (2R,5S)-4-(3-chloro-4-cyanophenyl)-N-(2-(4-((4-(2-((S)-2,6-dioxopiperidin-3-yl)-1-oxoisoindolin-5-yl)piperazin-1-yl)methyl)piperidin-1-yl)pyrimidin-5-yl)-2,5-dimethylpiperazine-1-carboxamide] yielded a DC50 of no more than 0.01 µM.

In turn, `C[C@@H]1CN(c2ccc(C#N)c(C(F)(F)F)c2)[C@@H](C)CN1C(=O)Nc1ccc(N2CCC(CN3CCN(c4ccc5c(c4)CN([C@H]4CCC(=O)NC4=O)C5=O)CC3)CC2)c(F)c1` [Compound 1-50, (2R,5S)-4-(4-cyano-3-(trifluoromethyl)phenyl)-N-(4-(4-((4-(2-((S)-2,6-dioxopiperidin-3-yl)-1-oxoisoindolin-5-yl)piperazin-1-yl)methyl)piperidin-1-yl)-3-fluorophenyl)-2,5-dimethylpiperazine-1-carboxamide] yielded a DC50 of no more than 0.01 µM.

`CC(C)N(CC1CCN(c2ccc(NC(=O)N3C[C@H](C)N(c4ccc(C#N)c(Cl)c4)C[C@H]3C)cn2)CC1)C1CC(Oc2ccc3c(c2)C(=O)N(C2CCC(=O)NC2=O)C3=O)C1` (stereo partly drawn) [Compound 1-11, (2R,5S)-4-(3-chloro-4-cyanophenyl)-N-(6-(4-((((1r,3r)-3-((2-(2,6-dioxopiperidin-3-yl)-1,3-dioxoisoindolin-5-yl)oxy)cyclobutyl)(isopropyl)amino)methyl)piperidin-1-yl)pyridin-3-yl)-2,5-dimethylpiperazine-1-carboxamide] displayed a DC50 of no more than 0.01 µM.
